Results from PMC10974768 (Toxins, 2024).
Where two headings read alike, the source gives them in different places.

Experiments:
[1] = tested on: CYP1A, CYP2A, CYP2C, CYP2B, CYP2E and CYP3A in porcine liver microsomes; conditions: concentration of 3 μM; cited from earlier work
[2] = tested on: CYP1A2, CYP2B6, CYP2E1, CYP2C9, CYP2A6, CYP3A4 (summary bound over all); experiment: in vitro; conditions: chicken, microsomes, pH 7.4
Description: (§1) A cocktail-approach for elucidating the metabolites profiling and CYP450 inhibition was conducted as in Lin et al. with minor changes. The incubation mixture contained 50 μL of 0.2 mg/mL of CLM, 10 μL of 0.1 M phosphate buffer (pH 7.4), 40 μL of 1 mM NADPH and six probe substrates with a total volume of 200 μL. The specific probe substrates used for each CYP450 isoenzyme in the incubation mixture were as follows: PH (CYP1A2), BP (CYP2B6), CLN (CYP2E1), TBD (CYP2C9), CAN (CYP2A6), and MDZ (CYP3A4). Probes substrates were dissolved in methanol as stock solution (1 mg/mL). All of them were diluted to the final concentrations (see Supplemental Materials) with incubation buffer and the percentage of organic solvent in the final incubation volume was below 1% (v/v). Briefly, the mixture was preincubated in a thermoshaker (Biosan, Geraardsbergen, Belgium) for 5 min at 37 °C prior to the initiation of the reaction with NADPH.4Na. After incubation, the mixture was terminated by 400 μL ice-cold acetonitrile. […] A volume of 5 µL of supernatant was analysed using UHPLC-MS/MS.

CYP2B6 = experiment: in vitro; conditions: chicken, microsomes, pH 7.4
Description: as §1

CYP2E1 = experiment: in vitro; conditions: chicken, pH 7.4
Description: as §1

CYP3A4 [3] = experiment: in vitro; conditions: chicken, pH 7.4
Description: as §1

CYP2C9 = experiment: in vitro; conditions: chicken, microsomes, pH 7.4
Description: as §1

CYP1A2 = experiment: in vitro; conditions: chicken, microsomes, pH 7.4
Description: as §1

CYP2A6 = experiment: in vitro; conditions: chicken, microsomes, pH 7.4
Description: as §1

CYP3A4 [4] = conditions: read-out: IC50 for CYP3A4; human liver microsomes; cited from earlier work
in vivo = assay type: in vivo, broiler chickens (Ross 308); conditions: for TIA concentration in chicken plasma, Treatment group: AFB1 diet 20 µg/kg feed for 2 weeks
broilers = conditions: AFB1 and TIA co-administrated
CYP3A = conditions: chickens; doses of 25 and 125 mg/kg body weight; cited from earlier work
[5] = chickens exposed to AFB1 (750 µg/kg); nonsignificant; cited from earlier work
CYP2C8 [6] = conditions: cited from earlier work
CYP2C8 [7] = conditions: cited from earlier work; remark: listed apart in the source
[8] = AFB1 diet 20 µg/kg feed for 2 weeks vs control, TIA oral 25 mg/kg BW, p < 0.01
[9] = TIA oral bolus 25 mg/kg BW, chickens not pretreated with AFB1 (control feed for 2 weeks), n = 9, mean ± SD

Question: Which “inhibition of CYP1A, CYP2A, CYP2C, CYP2B, CYP2E and CYP3A” value [1] does the source give for CCC[C@@H]1C[C@@H](C(=O)N[C@@H]([C@H]2O[C@H](SC)[C@H](O)[C@@H](O)[C@H]2O)[C@@H](C)O)N(C)C1 [lincomycin] here?
Answer: inhibits

Question: For C=C[C@]1(C)C[C@@H](OC(=O)CSCCN(CC)CC)[C@]2(C)[C@H](C)CC[C@]3(CCC(=O)[C@H]32)[C@@H](C)[C@@H]1O [TIA, tiamulin], which IC50 [2] is on record?
Answer: > 7.6 µM

Question: What about the IC50 (CYP2B6) of the same molecule?
Answer: > 40 µM

Question: And the IC50 (CYP2E1; microsomes)?
Answer: > 40 µM

Question: And the “IC50 for CYP2E1” value (CYP2E1)?
Answer: 47.6 µM

Question: What about the IC50 (CYP3A4 [3]; microsomes) of the same molecule?
Answer: > 40 µM

Question: What about the “IC50 for CYP3A4” value (CYP3A4 [3]) of the same molecule?
Answer: 334.2 µM

Question: What about the IC50 (CYP2C9) of the same molecule?
Answer: > 40 µM

Question: And the IC50 (CYP1A2)?
Answer: > 40 µM

Question: And the IC50 (CYP2A6)?
Answer: 7.6 µM

Question: What about the IC50 (CYP3A4 [4]) of the same molecule?
Answer: 1.6 µM

Question: What about the “TIA concentration in chicken plasma, Treatment group” value (“TIA concentration in chicken plasma” for short) (in vivo; 0.25 h after oral TIA 25 mg/kg BW, mean ± SD) of the same molecule?
Answer: 134 ± 71.5 ng/mL

Question: And the “TIA concentration in chicken plasma” value (in vivo; 0.50 h after oral TIA 25 mg/kg BW, mean ± SD)?
Answer: 83.7 ± 40.2 ng/mL

Question: What about the “TIA concentration in chicken plasma” value (in vivo; 1 h after oral TIA 25 mg/kg BW, mean ± SD) of the same molecule?
Answer: 76.7 ± 40.2 ng/mL

Question: What about the “TIA concentration in chicken plasma” value (in vivo; 2 h after oral TIA 25 mg/kg BW, mean ± SD) of the same molecule?
Answer: 91.0 ± 61.2 ng/mL

Question: And the “TIA concentration in chicken plasma” value (in vivo; 3 h after oral TIA 25 mg/kg BW, mean ± SD)?
Answer: 73.6 ± 32.9 ng/mL

Question: What about the “TIA concentration in chicken plasma” value (in vivo; 4 h after oral TIA 25 mg/kg BW, mean ± SD) of the same molecule?
Answer: 29.6 ± 13.8 ng/mL

Question: And the “TIA concentration in chicken plasma” value (in vivo; 6 h after oral TIA 25 mg/kg BW, mean ± SD)?
Answer: 10.8 ± 3.6 ng/mL

Question: And the “TIA concentration in chicken plasma” value (in vivo; 8 h after oral TIA 25 mg/kg BW, mean ± SD)?
Answer: 10.4 ± 3.7 ng/mL

Question: What about the “TIA concentration in chicken plasma” value (in vivo; 12 h after oral TIA 25 mg/kg BW, mean ± SD) of the same molecule?
Answer: 9.60 ± 3.0 ng/mL

Question: And the “TIA concentration in chicken plasma” value (in vivo; 24 h after oral TIA 25 mg/kg BW, mean ± SD)?
Answer: 9.50 ± 3.3 ng/mL

Question: What about the “increase of Cmax of TIA by AFB1 exposure” value (in vivo; AFB1 diet 20 µg/kg feed for 2 weeks vs control, TIA oral 25 mg/kg BW) of the same molecule?
Answer: 155%

Question: And the “CL_F_obs of TIA in AFB1-exposed group lower than in the control group” value (in vivo; [8])?
Answer: 63%

Question: What about the “Vd_F_obs of TIA in AFB1-exposed group lower than in the control group” value (in vivo; [8]) of the same molecule?
Answer: 57%

Question: What about the “increase of AUClast of TIA by AFB1 exposure” value (in vivo; [8]) of the same molecule?
Answer: 167%

Question: What about the “Tmax, Control” value (in vivo; [9]) of the same molecule?
Answer: 0.4 ± 0.2 h

Question: And the “Vd_F_obs, Control” value (in vivo; [9])?
Answer: 715.1 ± 228.45 L/kg

Question: And the “Vd_F_obs, Treatment” value (in vivo; TIA oral bolus 25 mg/kg BW, chickens pretreated with AFB1 contaminated diet (20 µg/kg feed for 2 weeks), n = 8, mean ± SD)?
Answer: 407.1 ± 142.5 L/kg

Question: What about the AUC(0-t) (in vivo; male, Ross 308, in vivo, po, 25 mg/kg, TIA oral bolus 25 mg/kg BW, chickens not pretreated with AFB1 (control feed for 2 weeks), last sampling point 180 h, n = 9, mean ± SD, read-out: AUClast, Control) of the same molecule?
Answer: 294 ± 63.3 ng·h/mL

Question: And the AUC(0-inf) (in vivo; male, Ross 308, in vivo, po, 25 mg/kg, TIA oral bolus 25 mg/kg BW, chickens not pretreated with AFB1 (control feed for 2 weeks), n = 9, mean ± SD, read-out: AUCINF_obs, Control)?
Answer: 357 ± 69.6 ng·h/mL

Question: What about the CL/F (in vivo; male, Ross 308, in vivo, po, 25 mg/kg, TIA oral bolus 25 mg/kg BW, chickens not pretreated with AFB1 (control feed for 2 weeks), n = 9, mean ± SD, read-out: CL_F_obs, Control (converted)) of the same molecule?
Answer: 1200 mL/min/kg

Question: And the Cmax (in vivo; male, Ross 308, in vivo, po, 25 mg/kg, TIA oral bolus 25 mg/kg BW, chickens not pretreated with AFB1 (control feed for 2 weeks), n = 9, mean ± SD, read-out: Cmax, Control)?
Answer: 89.9 ± 45.9 ng/mL

Question: And the MRT last (in vivo; male, Ross 308, in vivo, po, 25 mg/kg, TIA oral bolus 25 mg/kg BW, chickens not pretreated with AFB1 (control feed for 2 weeks), n = 9, mean ± SD, read-out: MRTlast, Control)?
Answer: 6.8 ± 1.4 h

Question: And the half-life (in vivo; male, Ross 308, in vivo, po, 25 mg/kg, TIA oral bolus 25 mg/kg BW, chickens not pretreated with AFB1 (control feed for 2 weeks), n = 9, mean ± SD, read-out: T1/2λz, Control (converted))?
Answer: 7 ± 2.9 h

Question: And the Tmax (in vivo; male, Ross 308, in vivo, po, 25 mg/kg, TIA oral bolus 25 mg/kg BW, chickens not pretreated with AFB1 (control feed for 2 weeks), n = 9, mean ± SD, read-out: Tmax, Control)?
Answer: 0.44 h

Question: What about the AUC(0-inf) (in vivo; male, Ross 308, in vivo, po, 25 mg/kg, TIA oral bolus 25 mg/kg BW, chickens pretreated with AFB1 contaminated diet (20 µg/kg feed for 2 weeks), n = 8, mean ± SD, read-out: AUCINF_obs, Treatment) of the same molecule?
Answer: 586 ± 174 ng·h/mL

Question: What about the CL/F (in vivo; male, Ross 308, in vivo, po, 25 mg/kg, TIA oral bolus 25 mg/kg BW, chickens pretreated with AFB1 contaminated diet (20 µg/kg feed for 2 weeks), n = 8, mean ± SD, read-out: CL_F_obs, Treatment (converted)) of the same molecule?
Answer: 763 mL/min/kg

Question: What about the Cmax (in vivo; male, Ross 308, in vivo, po, 25 mg/kg, TIA oral bolus 25 mg/kg BW, chickens pretreated with AFB1 contaminated diet (20 µg/kg feed for 2 weeks), n = 8, mean ± SD, read-out: Cmax, Treatment) of the same molecule?
Answer: 142 ± 65.4 ng/mL

Question: What about the MRT last (in vivo; male, Ross 308, in vivo, po, 25 mg/kg, TIA oral bolus 25 mg/kg BW, chickens pretreated with AFB1 contaminated diet (20 µg/kg feed for 2 weeks), n = 8, mean ± SD, read-out: MRTlast, Treatment) of the same molecule?
Answer: 6.2 ± 1.8 h

Question: What about the half-life (in vivo; male, Ross 308, in vivo, po, 25 mg/kg, TIA oral bolus 25 mg/kg BW, chickens pretreated with AFB1 contaminated diet (20 µg/kg feed for 2 weeks), n = 8, mean ± SD, read-out: T1/2λz, Treatment (converted)) of the same molecule?
Answer: 6.3 ± 2.2 h

Question: And the Tmax (in vivo; male, Ross 308, in vivo, po, 25 mg/kg, TIA oral bolus 25 mg/kg BW, chickens pretreated with AFB1 contaminated diet (20 µg/kg feed for 2 weeks), n = 8, mean ± SD, read-out: Tmax, Treatment)?
Answer: 1 ± 1.1 h

Question: What about the “adverse health effects in broilers” value (broilers) of the same molecule?
Answer: No significant adverse health effects

Question: Which “inhibition of CYP3A activity” value (CYP3A) does the source give for CCN1CCN(c2cc3c(cc2F)c(=O)c(C(=O)O)cn3C2CC2)CC1 [enrofloxacin] here?
Answer: inhibit CYP3A activity

Question: And the “increase of AUC0–∞” value [5]?
Answer: 17%

Question: And the “increase of T1/2a” value [5]?
Answer: 17%

Question: What about the “increase of Tmax” value [5] of the same molecule?
Answer: 26%

Question: For CC1(C)S[C@@H]2[C@H](NC(=O)[C@H](N)c3ccc(O)cc3)C(=O)N2[C@H]1C(=O)O [Amoxicillin], which IC50 (CYP2C8 [6]) is on record?
Answer: 830 µM

Question: Which “inhibitory effect on CYP2C8” value (CYP2C8 [7]) does the source give for COc1cc(Cc2cnc(N)nc2N)cc(OC)c1OC [Trimethoprim] here?
Answer: weak inhibitory effect
